Results reported in patent US8551693B2 (priority 2008, dated 2013).
Read-outs that look alike come from different tables or passages of the source.

What was measured:
[1] = target: T1, Nav1.5^Mut sodium channel (mutated human Nav1.5) (Homo sapiens, UniProt Q14524, F1486Q/K1419C); assay type: cell-based
T1 construct: expressed in transfected cells; host or cells: HEK293 cells stably expressing the Cameleon (Venus/CFP) calcium biosensor; clone VC/Nav1.5 #12
Description: VC/Nav1.5 #12 cells were incubated with different concentrations of quinidine (FIG. 6A), sertralin (FIG. 6B) or paroxetine (FIG. 6C), and a first fluorescence reading was performed, (FVenus/FCFP)0. 25 mM Ca^2+ was added to activate the channel and a second fluorescence reading was performed, (FVenus/FCFP)ca2+. […] Error bars represent the standard deviation of experiments performed in triplicate;
The fluorescence intensity was measured using a Packard Fusion™ Universal Microplate Analyzer. 75,000 cells per well were analyzed in a bath solution containing 140 mM NaCl, 2 mM KCl, 1.5 mM CaCl2, 1 mM MgCl2, 10 mM glucose, and 10 mM Na-HEPES. For calcium measurements, the bath solution contained: 140 mM NaCl, 2 mM KCl, 25 mM CaCl2, 10 mM glucose and 10 mM Na-HEPES. The pH of the bath solutions was adjusted to pH 7.4 using 1N NaOH.
Dose-response experiments in the presence of known sodium channel blockers (quinidine, sertralin and paroxetine) were performed.

[2] = tested on: VC #7 control Cameleon HEK293 cell line; assay: Cameleon FRET fluorescence microplate assay in control Cameleon cell line VC #7 (does not express a sodium channel); assay type: cell-based, human; details: VC #7 cell line that does not express a sodium channel; FIG. 4B
From the text: The reporter cell lines described herein are derived from the HEK293 cell line, which, in turn, is derived from human embryonic kidney. […] To generate a Nav1.5^Mut/Cameleon reporter cell line, the first step was to establish a HEK293 cell line which expresses the Cameleon calcium biosensor alone. HEK293 cells were transfected with a vector (pIREShyg3, Clonetech, Cat. No. 631620) encoding the Cameleon construct (as described in Evanko and Haydon, Cell Calcium (2005) 37: 341-348). This cell line that express the Cameleon alone was then stably transfected with the pcDNA4neo-Nav1.5^Mut expression vector (see FIG. 7A for the sequence of Nav1.5^Mut). […] The resulting cell lines were then assessed in patch-clamp for their capacity to produce robust current amplitude.
Cameleon is a fluorescent biosynthetic Ca^2+ indicator constructed by inserting a Ca^2+ sensor (Calmodulin and M13, a calmodulin-binding protein) between two mutated forms of green fluorescent protein (GFP): the energy acceptor Venus, a derivative of yellow fluorescent protein (YFP), and the energy donor, cyan fluorescent protein (CFP) (Evanko D S and Haydon P G, Cell calcium 2005, 37: 341-348). Cameleon fluorescence is affected by differences in the concentration of Ca^2+ that alter the amount of fluorescence resonance energy transfer (FRET) between CFP and Venus. […]

[3] = tested on: HEK293 Cameleon cell line (intracellular Ca2+); assay: Confocal microscopy FRET ratio in HEK293 cell line stably expressing the Cameleon biosensor alone; assay type: cell-based, human; details: 10 μM ionomycin, ratio versus time, FIG. 3B
Description: FIG. 3A: Individual Venus (right panel) and CFP (left panel) fluorescence image taken with a 40× objective. FIG. 3B: Plot of FRET ratio (Venus/CFP) versus time following addition of 10 μM ionomycin;
A HEK293 cell line stably expressing the Cameleon biosensor alone was treated with ionomycin (10 μM), a calcium ionophore, to raise the intracellular level of Ca^2+, and the FRET ratio was analysed by confocal microscopy.

C[C@H](CCC(=O)O)C[C@H](C)C[C@H](C)C(=O)/C=C(\O)[C@H](C)C[C@H](C)C/C=C/[C@@H](C)[C@@H](O)[C@@H](C)[C@@H](O)C[C@@H]1CC[C@@](C)([C@H]2CC[C@@](C)([C@@H](C)O)O2)O1 [ionomycin]
FRET response to treatment ([1]; VC/Nav1.5 #12 and #14 cell lines, FIG. 4B): respond
FRET response to treatment [2]: respond only to ionomycin
FRET ratio (Venus/CFP) [3]: increase in the Venus/CFP ratio

Fc1ccc([C@@H]2CCNC[C@H]2COc2ccc3c(c2)OCO3)cc1 [paroxetine]
Delta FRET ratio signal, (FVenus/FCFP)Ca2+/(FVenus/FCFP)0 ([1]; VC/Nav1.5 #12 cells, increasing doses of blocker, 25 mM Ca2+ added to activate the channel, compared to control cells receiving buffer only, FIG. 6): decrease in the Delta FRET ratio signal

C=C[C@H]1C[N@@]2CC[C@H]1C[C@@H]2[C@@H](O)c1ccnc2ccc(OC)cc12 [quinidine]
Delta FRET ratio signal, (FVenus/FCFP)Ca2+/(FVenus/FCFP)0 [1]: decrease in the Delta FRET ratio signal

CN[C@H]1CC[C@@H](c2ccc(Cl)c(Cl)c2)c2ccccc21 [sertralin]
Delta FRET ratio signal, (FVenus/FCFP)Ca2+/(FVenus/FCFP)0 [1]: decrease in the Delta FRET ratio signal
